The text below walks through data of patent publication US20220016092A1, “METHODS FOR TREATING SYMPTOMS AND DISORDERS ASSOCIATED WITH LYSOSOMAL STORAGE DISEASES” (GENZYME CORPORATION, priority 2019, published 2022).

In series [1] the test system is adult patients with Gaucher disease Type 3. Kind of series: Clinical study in GD-3 patients: interstitial lung disease by high-resolution CT. Type of series: in vivo, human. As to conditions: 15 mg/day + imiglucerase. The protocol: During the study patients were evaluated for safety and tolerability, CSF and plasma biomarkers (glucosylceramide, GL-1; glucosylsphingosine, lyso-GL1), pharmacokinetics, markers for systemic disease (spleen and liver volume measured by magnetic resonance imaging (MRI), platelet count, hemoglobin levels), indicia of interstitial lung disease (high resolution pulmonary computed tomography (CT)), and horizontal saccadic eye movement.
Severity of interstitial lung disease was characterized by the percent of lung volume affect by ILD as measured by high-resolution CT in four lung regions (aortic arch, carina, lower zone L3, lower zone L4). Patients were rated as having severe ILD (51-100% of lung volume affected), moderate ILD (26-50% of lung volume affected), mild ILD (1-25% of lung volume affected) or normal (0% of lung volume showing ILD).

Series [2] is described as follows: Study 1 Part 2: pharmacokinetics with and without a high-fat meal. In kind it is in vivo, human. As to conditions: healthy men, single oral 5 mg dose. An excerpt:
Study 1 was a 2-part single-center trial in healthy adult male volunteers.
Part 1 of the study enrolled and randomized 55 healthy men (placebo, n=14; 2-, 5-, 15, 25-, 50, and 100-mg doses, n=6 each; 150-mg dose, n=5). Eight healthy men participated in Part 2.
After a 7-day washout period, participants were crossed over to the other condition.

Where [3] appears, read: Week 26, individual Patients 1-5.

“Also recorded” adds a separate entry of the source.

With `CC(C)(NC(=O)O[C@@H]1CN2CCC1CC2)c1csc(-c2ccc(F)cc2)n1` [Compound 2, (S)-quinuclidin-3-yl 2-(2-(4-fluorophenyl)thiazol-4-yl)propan-2-ylcarbamate], in series [1] (setting [3]), the “ILD severity, Aortic Arch Left” value was “Norm (normal (0% of lung volume showing ILD)); also recorded: Mild (mild ILD (1-25% of lung volume affected))”; the “ILD severity, Aortic Arch Right” value is recorded as “Norm (normal (0% of lung volume showing ILD)); also recorded: Mild (mild ILD (1-25% of lung volume affected))”; the “ILD severity, Carina Left” value was “Norm (normal (0% of lung volume showing ILD)); also recorded: Mild (mild ILD (1-25% of lung volume affected))”; the “ILD severity, Carina Right” value is given as “Norm (normal (0% of lung volume showing ILD)); also recorded: Mod (moderate ILD (26-50% of lung volume affected)); also recorded: Mild (mild ILD (1-25% of lung volume affected))”. In series [1] (setting [3]), the “ILD severity, Zone L3 Left” value is recorded as “Norm (normal (0% of lung volume showing ILD)); also recorded: Mild (mild ILD (1-25% of lung volume affected))”; the “ILD severity, Zone L3 Right” value is “Norm (normal (0% of lung volume showing ILD)); also recorded: Mild (mild ILD (1-25% of lung volume affected))”; the “ILD severity, Zone L4 Left” value is listed as “Norm (normal (0% of lung volume showing ILD)); also recorded: Mod (moderate ILD (26-50% of lung volume affected))”; the “ILD severity, Zone L4 Right” value is given as “Norm (normal (0% of lung volume showing ILD)); also recorded: Mod (moderate ILD (26-50% of lung volume affected))”. Besides, the “Patients showing regression of ILD” value in series [1] (after 26 weeks) is 4 out of 5. The “Effect of a high-fat meal on exposure compared with fasting conditions” value in series [2] was “no effect”. The same compound registered a Median tmax in series [2] (fed or fasting) of 6.00 h.
